Consider six compounds from patent US10414728B2 (priority 2014, dated 2019).

Where a name gives a salt, the structure may show the parent alone. Read-outs that look alike come from different tables or passages of the source.

In data set [1] the target is T1, Human recombinant serotonin 5-HT2A receptor (Homo sapiens, UniProt P28223).
T1 construct: expressed in transfected cells; host or cells: CHO-K1
The data set can be described thus: Serotonin-mediated inositol phosphate (IP1) response in CHO-K1 cells. The format is cell-based. Particulars: screened at 1 μM, 30 minutes at 37° C.; for inhibition at 1 µM: CHO-K1, read-out: antagonism: inhibition of 0.3 μM serotonin-induced fluorescence response. Here is the method:
The 5-HT2 receptor class couples preferentially to Gq/G11 to increase hydrolysis of inositol phosphates and elevate cytosolic [Ca^2+]. Human recombinant serotonin 5-HT2A receptor stably expressed in CHO-K1 cells are used. Test compound and/or vehicle is incubated with the cells (5×10^5/ml) in stimulation buffer of IP1 Tb kit (Cisbio Bioassays) for 30 minutes at 37° C. Test compound-induced increase of fluorescence relative to the 10 μM serotonin response indicate possible serotonin 5-HT2A receptor agonist activity.

The next data set concerns the target human NaV 1.5 (Homo sapiens, UniProt Q14524). The data set can be described thus: Electrophysiology, IonWorks Barracuda, NaV channel block in CHO cells. The settings on record: Nav1.5, CHO cells, 5 min exposure, ambient temperature. As to the method:
(§1) Effects on Human NaV 1.1, NaV 1.2, NaV1.3, NaV 1.4, NaV 1.5, NaV 1.6, NaV 1.7 and NaV 1.8/β3 Sodium Channels Expressed in Mammalian Cells
(§2) CHO cells were stably transfected with human ion channel cDNAs. Stable transfectants were selected by expression with the antibiotic-resistance gene(s) incorporated into the expression plasmid(s). Selection pressure was maintained by including selection antibiotics in the culture medium. CHO cells were cultured in Ham's F-12 supplemented with 10% fetal bovine serum, 100 U/mL penicillin G sodium, 100 μg/mL streptomycin sulfate and appropriate selection antibiotics. Before testing, cells in culture dishes were washed twice with Hank's Balanced Salt Solution (HB-PS) and treated with Accutase for approximately 20 minutes. Immediately before use in IonWorks Barracuda™, the cells were washed in HB-PS to remove the Accutase and re-suspended in HB-PS. All experiments were performed at ambient temperature. […] Duration of exposure to each test article concentration was five (5) minutes. Inhibition of NaV channels was measured using a stimulus voltage pattern. The pulse pattern was repeated before (baseline) and for five (5) minutes after compound addition. […]
(§3) where [C] was the concentration of test article, IC50 was the concentration of the test article producing half-maximal inhibition, N was the Hill coefficient, % VC was the percentage of the current run-down (the mean current inhibition at the vehicle control) and % Block was the percentage of ion channel current inhibited at each concentration of a test article. Nonlinear least squares fits were solved with the XLfit add-in for Excel (Microsoft, Redmond, Wash.).
For orientation: The patch-clamp technique gives a direct electrical read-out from membranes.

The next data set has as its target T2, human NaV 1.1 (Homo sapiens, UniProt P35498).
T2 construct: expressed in transfected cells; host or cells: CHO
The description is as above. The format is cell-based. Particulars: Nav1.1, CHO cells, 5 min exposure, ambient temperature. As to the method:
as §1, §2, §3

In the next data set the target is T3, human NaV 1.2 (Homo sapiens, UniProt Q99250).
T3 construct: expressed in transfected cells; host or cells: CHO
The description is as above. The format is cell-based. The settings on record: Nav1.2, CHO cells, 5 min exposure, ambient temperature. Here is the method: as §1, §2, §3

For a further data set, the target named is T4, human NaV 1.4 (Homo sapiens, UniProt P35499).
T4 construct: expressed in transfected cells; host or cells: CHO
The description is as above. The format is cell-based. Particulars: Nav1.4, CHO cells, 5 min exposure, ambient temperature. Here is the method: as §1, §2, §3

Another data set has as its target T5, human NaV 1.6 (Homo sapiens, UniProt Q9UQD0).
T5 construct: expressed in transfected cells; host or cells: CHO
The data set is described as above. The format is cell-based. The settings on record: Nav1.6, CHO cells, 5 min exposure, ambient temperature. As to the method: as §1, §2, §3

For another data set, the target named is T6, human NaV 1.7 (Homo sapiens, UniProt Q15858).
T6 construct: expressed in transfected cells; host or cells: CHO
Described as above. The format is cell-based. Particulars: Nav1.7, CHO cells, 5 min exposure, ambient temperature. Here is the method:
as §1, §2, §3

The target in a further data set is T7, human NaV 1.8/β3 (Homo sapiens, UniProt Q9Y5Y9).
T7 construct: expressed in transfected cells; host or cells: CHO
The data set is described as above. The format is cell-based. The settings on record: Nav1.8, CHO cells, 5 min exposure, ambient temperature. Here is the method: as §1, §2, §3

The next data set has as its target T8, human NaV1.3 (Homo sapiens, UniProt Q9NY46).
T8 construct: expressed in transfected cells; host or cells: CHO
Described as above. The format is cell-based. Particulars: Nav1.3, CHO cells, 5 min exposure, ambient temperature. As to the method:
as §1, §2, §3

A further data set concerns NaV 1.1 to NaV 1.8. The data set can be described thus: Electrophysiology, summary over the NaV panel. The format is cell-based, human. As to the method:
as §1
CHO cells were stably transfected with human ion channel cDNAs. Stable transfectants were selected by expression with the antibiotic-resistance gene(s) incorporated into the expression plasmid(s). Selection pressure was maintained by including selection antibiotics in the culture medium. CHO cells were cultured in Ham's F-12 supplemented with 10% fetal bovine serum, 100 U/mL penicillin G sodium, 100 μg/mL streptomycin sulfate and appropriate selection antibiotics. Before testing, cells in culture dishes were washed twice with Hank's Balanced Salt Solution (HB-PS) and treated with Accutase for approximately 20 minutes. Immediately before use in IonWorks Barracuda™, the cells were washed in HB-PS to remove the Accutase and re-suspended in HB-PS. All experiments were performed at ambient temperature. […] Duration of exposure to each test article concentration was five (5) minutes. Inhibition of NaV channels was measured using a stimulus voltage pattern. The pulse pattern was repeated before (baseline) and for five (5) minutes after compound addition. Peak current amplitudes were measured for test pulses TP1 (inactivated state inhibition), TP2, TP3 (tonic inhibition) and TP22 (use-dependent inhibition).
as §3

The next data set concerns the target sodium channel site 2. The data set can be described thus: Sodium channel site 2 radioligand binding ([3H]Batrachotoxinin). The settings on record: rat brain membranes, determined in previous studies.
Another data set in a line: Solubility observation. The format is physicochemical. Particulars: DMSO and acetonitrile/water. Here is the method: A solution of methyl biphenyl-4-yl(1,2,5,6-tetrahydropyridin-2-yl)acetate hydrochloride salt (10.0 g, crude) in acetonitrile (40 mL) was charged with Methyl tert.-butyl ether (80 mL) and water (7.0 mL) at room temperature. The reaction mixture was stirred for 10 min at room temperature. The resulted solids were filtered, washed with Methyl tert.-butyl ether (25 mL) and was dried to afford EXAMPLE 1E (Enantiomeric pair consisting of Methyl (2R)-biphenyl-4-yl[(2S)-1,2,5,6-tetrahydropyridin-2-yl]acetate hydrochloride, EXAMPLE 1C, & Methyl (2S)-biphenyl-4-yl[(2R)-1,2,5,6-tetrahydropyridin-2-yl]acetate hydrochloride, EXAMPLE 1D, 3.75 g) as a light brown solid (96.8% HPLC purity, m/z 308 [M+H]+).

[2] abbreviates: read-out: IC50 TP2 (inactivated state).

T7 sequence (Q9Y5Y9 whole entry): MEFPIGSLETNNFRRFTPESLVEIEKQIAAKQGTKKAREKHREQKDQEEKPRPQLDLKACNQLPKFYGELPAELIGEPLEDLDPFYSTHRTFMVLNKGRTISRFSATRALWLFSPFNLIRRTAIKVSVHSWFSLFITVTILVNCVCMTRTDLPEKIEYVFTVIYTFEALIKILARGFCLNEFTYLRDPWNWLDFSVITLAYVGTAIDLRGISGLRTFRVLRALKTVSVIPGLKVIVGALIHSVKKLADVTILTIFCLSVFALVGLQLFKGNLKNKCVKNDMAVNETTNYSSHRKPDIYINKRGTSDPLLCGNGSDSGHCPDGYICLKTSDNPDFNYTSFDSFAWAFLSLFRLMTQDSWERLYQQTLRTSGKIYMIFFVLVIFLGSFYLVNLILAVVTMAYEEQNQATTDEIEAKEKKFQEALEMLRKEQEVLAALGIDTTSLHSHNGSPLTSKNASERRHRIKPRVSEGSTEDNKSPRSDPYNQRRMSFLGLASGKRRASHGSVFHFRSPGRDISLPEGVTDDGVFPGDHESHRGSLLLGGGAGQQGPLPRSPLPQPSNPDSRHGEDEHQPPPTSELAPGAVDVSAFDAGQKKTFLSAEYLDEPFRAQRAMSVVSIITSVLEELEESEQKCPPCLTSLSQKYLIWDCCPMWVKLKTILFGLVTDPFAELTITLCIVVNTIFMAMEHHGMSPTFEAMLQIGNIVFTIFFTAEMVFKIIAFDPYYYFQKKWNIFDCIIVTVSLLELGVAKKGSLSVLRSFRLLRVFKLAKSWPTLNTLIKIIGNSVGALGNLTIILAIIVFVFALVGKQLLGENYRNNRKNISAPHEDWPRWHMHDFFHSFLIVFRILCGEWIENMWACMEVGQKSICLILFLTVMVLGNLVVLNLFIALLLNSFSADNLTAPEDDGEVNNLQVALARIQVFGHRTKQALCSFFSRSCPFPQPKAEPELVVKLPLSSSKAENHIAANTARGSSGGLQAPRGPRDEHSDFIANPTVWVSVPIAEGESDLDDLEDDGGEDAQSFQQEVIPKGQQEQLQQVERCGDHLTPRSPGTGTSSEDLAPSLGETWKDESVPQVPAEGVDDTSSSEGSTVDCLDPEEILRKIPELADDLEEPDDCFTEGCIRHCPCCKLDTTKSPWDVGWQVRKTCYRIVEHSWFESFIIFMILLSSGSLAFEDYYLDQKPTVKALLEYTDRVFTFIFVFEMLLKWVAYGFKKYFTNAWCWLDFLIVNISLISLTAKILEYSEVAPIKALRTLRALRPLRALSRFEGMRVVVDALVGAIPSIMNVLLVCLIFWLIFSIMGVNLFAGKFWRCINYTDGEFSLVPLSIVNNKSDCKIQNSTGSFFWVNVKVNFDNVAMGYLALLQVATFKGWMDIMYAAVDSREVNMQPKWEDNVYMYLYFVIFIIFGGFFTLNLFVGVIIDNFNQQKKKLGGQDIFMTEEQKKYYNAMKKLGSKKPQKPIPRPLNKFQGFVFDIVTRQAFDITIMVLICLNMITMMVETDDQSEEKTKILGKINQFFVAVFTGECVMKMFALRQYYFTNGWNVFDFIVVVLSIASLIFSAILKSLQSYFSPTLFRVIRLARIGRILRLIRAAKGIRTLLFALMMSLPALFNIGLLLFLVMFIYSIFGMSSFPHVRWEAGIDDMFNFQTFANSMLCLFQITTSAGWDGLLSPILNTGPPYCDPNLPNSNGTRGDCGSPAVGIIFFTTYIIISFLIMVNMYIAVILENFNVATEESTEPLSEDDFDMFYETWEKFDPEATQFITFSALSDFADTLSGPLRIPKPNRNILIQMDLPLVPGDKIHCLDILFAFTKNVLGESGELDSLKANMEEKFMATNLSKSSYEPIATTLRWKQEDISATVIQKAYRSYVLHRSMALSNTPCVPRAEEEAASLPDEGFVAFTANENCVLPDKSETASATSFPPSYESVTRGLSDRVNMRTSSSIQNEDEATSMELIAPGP
T7 sequence (Q9NY72 25-215 partner limits assumed): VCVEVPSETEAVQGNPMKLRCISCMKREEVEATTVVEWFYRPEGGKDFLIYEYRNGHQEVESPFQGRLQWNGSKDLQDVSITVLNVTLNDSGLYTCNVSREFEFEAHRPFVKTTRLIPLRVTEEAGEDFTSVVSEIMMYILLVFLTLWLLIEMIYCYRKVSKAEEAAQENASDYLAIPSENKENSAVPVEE
T8 sequence (Q9NY46 whole entry): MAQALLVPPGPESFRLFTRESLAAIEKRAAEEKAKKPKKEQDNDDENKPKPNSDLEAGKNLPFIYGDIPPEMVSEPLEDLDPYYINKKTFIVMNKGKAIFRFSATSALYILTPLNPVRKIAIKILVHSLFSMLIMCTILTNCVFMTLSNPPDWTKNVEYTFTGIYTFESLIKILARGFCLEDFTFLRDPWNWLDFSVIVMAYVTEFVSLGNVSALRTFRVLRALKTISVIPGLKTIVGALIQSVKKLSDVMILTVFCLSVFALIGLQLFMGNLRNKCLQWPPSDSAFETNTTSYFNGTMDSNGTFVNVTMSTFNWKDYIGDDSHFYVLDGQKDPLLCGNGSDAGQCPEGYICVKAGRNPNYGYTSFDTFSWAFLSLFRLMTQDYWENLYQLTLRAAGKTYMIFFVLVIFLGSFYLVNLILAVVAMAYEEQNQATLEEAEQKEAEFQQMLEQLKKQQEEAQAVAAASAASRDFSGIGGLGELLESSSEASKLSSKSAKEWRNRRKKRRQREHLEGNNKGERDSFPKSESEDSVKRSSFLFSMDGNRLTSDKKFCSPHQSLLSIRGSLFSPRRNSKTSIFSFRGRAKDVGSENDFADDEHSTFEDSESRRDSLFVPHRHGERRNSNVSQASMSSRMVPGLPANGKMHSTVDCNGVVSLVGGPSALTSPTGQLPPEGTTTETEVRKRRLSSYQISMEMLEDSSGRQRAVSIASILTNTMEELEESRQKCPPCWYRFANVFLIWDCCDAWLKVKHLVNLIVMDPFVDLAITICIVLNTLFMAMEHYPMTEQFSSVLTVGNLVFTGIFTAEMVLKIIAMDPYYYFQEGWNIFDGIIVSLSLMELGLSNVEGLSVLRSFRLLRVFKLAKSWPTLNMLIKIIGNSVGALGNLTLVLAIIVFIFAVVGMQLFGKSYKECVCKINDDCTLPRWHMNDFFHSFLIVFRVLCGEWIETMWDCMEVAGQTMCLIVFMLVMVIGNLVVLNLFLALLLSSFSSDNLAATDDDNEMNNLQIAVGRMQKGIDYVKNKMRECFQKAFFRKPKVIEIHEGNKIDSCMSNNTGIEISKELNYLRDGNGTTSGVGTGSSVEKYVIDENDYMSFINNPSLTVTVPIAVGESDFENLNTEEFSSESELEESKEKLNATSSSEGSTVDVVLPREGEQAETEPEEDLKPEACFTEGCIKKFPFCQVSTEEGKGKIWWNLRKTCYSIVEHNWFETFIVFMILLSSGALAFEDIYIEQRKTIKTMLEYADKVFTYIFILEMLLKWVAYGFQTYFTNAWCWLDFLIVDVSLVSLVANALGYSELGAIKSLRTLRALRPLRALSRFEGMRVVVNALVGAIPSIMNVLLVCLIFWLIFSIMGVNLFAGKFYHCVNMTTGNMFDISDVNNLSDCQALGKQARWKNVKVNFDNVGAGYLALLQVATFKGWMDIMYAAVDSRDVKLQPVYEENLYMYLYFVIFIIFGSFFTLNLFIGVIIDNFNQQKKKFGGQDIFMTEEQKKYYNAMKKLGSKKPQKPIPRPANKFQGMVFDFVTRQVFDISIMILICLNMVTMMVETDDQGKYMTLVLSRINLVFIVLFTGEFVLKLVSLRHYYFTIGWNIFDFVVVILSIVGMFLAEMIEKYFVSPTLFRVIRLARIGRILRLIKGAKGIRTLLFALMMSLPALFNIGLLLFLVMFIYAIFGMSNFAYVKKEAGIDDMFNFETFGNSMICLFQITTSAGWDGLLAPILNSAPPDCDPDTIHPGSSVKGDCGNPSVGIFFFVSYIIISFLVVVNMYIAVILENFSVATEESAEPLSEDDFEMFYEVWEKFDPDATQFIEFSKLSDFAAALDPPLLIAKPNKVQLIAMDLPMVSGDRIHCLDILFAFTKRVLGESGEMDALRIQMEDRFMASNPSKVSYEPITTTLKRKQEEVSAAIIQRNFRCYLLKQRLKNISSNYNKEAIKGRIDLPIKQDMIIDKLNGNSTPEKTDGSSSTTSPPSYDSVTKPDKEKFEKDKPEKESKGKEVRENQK
T1 sequence (P28223 whole entry): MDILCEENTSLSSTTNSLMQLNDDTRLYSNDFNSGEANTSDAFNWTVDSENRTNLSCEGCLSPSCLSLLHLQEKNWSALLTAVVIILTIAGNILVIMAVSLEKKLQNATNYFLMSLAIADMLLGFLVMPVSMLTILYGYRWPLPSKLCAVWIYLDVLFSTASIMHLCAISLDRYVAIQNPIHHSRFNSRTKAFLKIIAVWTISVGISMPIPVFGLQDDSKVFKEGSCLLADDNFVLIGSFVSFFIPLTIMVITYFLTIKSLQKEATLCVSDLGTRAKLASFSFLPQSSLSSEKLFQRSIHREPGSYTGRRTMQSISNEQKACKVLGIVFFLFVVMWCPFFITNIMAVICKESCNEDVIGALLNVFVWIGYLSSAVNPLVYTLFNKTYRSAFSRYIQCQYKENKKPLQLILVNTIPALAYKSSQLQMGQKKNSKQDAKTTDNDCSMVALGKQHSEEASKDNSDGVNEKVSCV

On to `COC(=O)C(c1ccc(-c2ccccc2)cc1)C1C=CCCN1.Cl` (stereo not shown) [EXAMPLE 1, methyl biphenyl-4-yl(1,2,5,6-tetrahydropyridin-2-yl)acetate hydrochloride salt], for which the “agonist activity (increase of fluorescence relative to the 10 μM serotonin response)” value in data set [1] is listed as “no agonist activity”.

With `COC(=O)[C@H](c1ccc(-c2ccccc2)cc1)[C@@H]1C=CCCN1.Cl` [EXAMPLE 1C, Methyl (2R)-biphenyl-4-yl[(2S)-1,2,5,6-tetrahydropyridin-2-yl]acetate hydrochloride], the IC50 on human NaV 1.5 (IC50 TP1 (tonic)) was over 30 µM; on human NaV 1.5 (IC50 TP2 (inactivated state)), 1.5 µM; at human NaV 1.1 (IC50 TP1 (tonic)) it was over 30 µM; against human NaV 1.1 (IC50 TP2 (inactivated state)), 2.1 µM; at human NaV 1.2 (IC50 TP1 (tonic)), over 30 µM; against human NaV 1.2 (IC50 TP2 (inactivated state)), 3.1 µM. The IC50 at human NaV 1.4 (IC50 TP1 (tonic)) was over 30 µM; on human NaV 1.4 (IC50 TP2 (inactivated state)), 1.5 µM; against human NaV 1.6 (IC50 TP1 (tonic)) it was over 30 µM; at human NaV 1.6 (IC50 TP2 (inactivated state)) it was 2.2 µM; against human NaV 1.7 (IC50 TP1 (tonic)), over 30 µM; against human NaV 1.7 (IC50 TP2 (inactivated state)) it was 2.5 µM. Also, the IC50 against human NaV 1.8/β3 (IC50 TP1 (tonic)) was over 30 µM; against human NaV 1.8/β3 (IC50 TP2 (inactivated state)), 1.9 µM; against human NaV1.3 (IC50 TP1 (tonic)), over 30 µM; against human NaV1.3 (IC50 TP2 (inactivated state)) it was 2.2 µM. Also, the “inhibition to NaV 1.1 to NaV 1.8” value with NaV 1.1 to NaV 1.8 is “showed inhibition”. Further, the inhibition at 1 µM in data set [1] is 30%. Also, the “agonist activity (increase of fluorescence relative to the 10 μM serotonin response)” value in data set [1] is on record as “no agonist activity”.

Compound [3H]Batrachotoxinin came in with a Kd on sodium channel site 2 of 0.052 µM.

Regarding `COC(=O)[C@@H](c1ccc(-c2ccccc2)cc1)[C@H]1C=CCCN1` [EXAMPLE 1D, Methyl (2S)-biphenyl-4-yl[(2R)-1,2,5,6-tetrahydropyridin-2-yl]acetate hydrochloride], the IC50 on human NaV 1.5 (IC50 TP1 (tonic)) was over 30 µM; at human NaV 1.5 (IC50 TP2 (inactivated state)), 2 µM; against human NaV 1.1 (IC50 TP1 (tonic)) it was over 30 µM; against human NaV 1.1 (IC50 TP2 (inactivated state)), 2.2 µM; at human NaV 1.2 (IC50 TP1 (tonic)), over 30 µM; against human NaV 1.2 (IC50 TP2 (inactivated state)), 2.1 µM. Moreover, the IC50 against human NaV 1.4 (IC50 TP1 (tonic)) was over 30 µM; against human NaV 1.4 (IC50 TP2 (inactivated state)), 1.3 µM; on human NaV 1.6 (IC50 TP1 (tonic)) it was over 30 µM; against human NaV 1.6 (IC50 TP2 (inactivated state)), 2 µM; on human NaV 1.7 (IC50 TP1 (tonic)), over 30 µM; against human NaV 1.7 (IC50 TP2 (inactivated state)) it was 2 µM. Moreover, the IC50 on human NaV 1.8/β3 (IC50 TP1 (tonic)) was over 30 µM; against human NaV 1.8/β3 (IC50 TP2 (inactivated state)), 1.8 µM; at human NaV1.3 (IC50 TP1 (tonic)), over 30 µM; at human NaV1.3 (IC50 TP2 (inactivated state)), 2 µM. Moreover, the “inhibition to NaV 1.1 to NaV 1.8” value in the data set with NaV 1.1 to NaV 1.8 is reported as “showed inhibition”. Besides, the inhibition at 1 µM in data set [1] worked out at 37%. Further, the “agonist activity (increase of fluorescence relative to the 10 μM serotonin response)” value in data set [1] is given as “no agonist activity”.

In the case of `CCN(CC)CC(=O)Nc1c(C)cccc1C` [Lidocaine, reference compound], the IC50 at human NaV 1.1 (read-out: IC50 TP1 (tonic)) is 543 µM; on human NaV 1.1 (setting [2]), 465 µM; at human NaV 1.4 (read-out: IC50 TP1 (tonic)), 389 µM; on human NaV 1.4 (setting [2]), 162 µM; on human NaV 1.6 (read-out: IC50 TP1 (tonic)) it was 423 µM; at human NaV 1.6 (setting [2]) it was 188 µM. For the same compound, the IC50 at human NaV 1.7 (read-out: IC50 TP1 (tonic)) amounted to 382 µM; on human NaV 1.7 (setting [2]) it was 154 µM; on human NaV 1.8/β3 (read-out: IC50 TP1 (tonic)), 280 µM; at human NaV 1.8/β3 (setting [2]), 51.4 µM; at human NaV1.3 (read-out: IC50 TP1 (tonic)) it was 555 µM; at human NaV1.3 (setting [2]), 165 µM.

Take `COC(=O)[C@H](c1ccc(-c2ccccc2)cc1)[C@@H]1C=CCCN1` (racemic) [EXAMPLE 1E]: the IC50 is over 30 µM against human NaV 1.5 (IC50 TP1 (tonic)); 1.2 µM against human NaV 1.5 (IC50 TP2 (inactivated state)); over 30 µM against human NaV 1.1 (IC50 TP1 (tonic)); 1.5 µM against human NaV 1.1 (IC50 TP2 (inactivated state)); over 30 µM at human NaV 1.2 (IC50 TP1 (tonic)); 1.5 µM against human NaV 1.2 (IC50 TP2 (inactivated state)). Moreover, the IC50 at human NaV 1.4 (IC50 TP1 (tonic)) is over 30 µM; at human NaV 1.4 (IC50 TP2 (inactivated state)), 1.2 µM; at human NaV 1.6 (IC50 TP1 (tonic)), over 30 µM; against human NaV 1.6 (IC50 TP2 (inactivated state)) it was 1.2 µM; at human NaV 1.7 (IC50 TP1 (tonic)), over 30 µM; against human NaV 1.7 (IC50 TP2 (inactivated state)), 1.3 µM. For the same compound, the IC50 on human NaV 1.8/β3 (IC50 TP1 (tonic)) is over 30 µM; on human NaV 1.8/β3 (IC50 TP2 (inactivated state)), 1.1 µM; at human NaV1.3 (IC50 TP1 (tonic)), over 30 µM; at human NaV1.3 (IC50 TP2 (inactivated state)) it was 1.3 µM. Besides, the “inhibition to NaV 1.1 to NaV 1.8” value with NaV 1.1 to NaV 1.8 is on record as “showed inhibition”. In addition, the solubility result in “Solubility observation” is “soluble in DMSO and acetonitrile/water”.

For orientation: IC50 means the point on the concentration scale where inhibition reaches its midpoint. As usually defined, the inhibition is the relative decrease from the control value, in per cent. By Kd is commonly meant the free concentration of one partner at which half of the binding sites on the other are occupied at equilibrium, for simple one-to-one binding. Low values mean tighter binding, high ones weaker binding.
